These results are taken from ChEMBL document CHEMBL4393660, “New pyrazole derivatives: Synthesis, anti-inflammatory activity, cycloxygenase inhibition assay and evaluation of mPGES” (Eur J Med Chem, 2019).

Activity calls are given as the source filed them. No cut-off for these calls is given here.

In data set [1] the target is Prostaglandin G/H synthase 1 (Homo sapiens, UniProt P23219). The experiment in a line: Inhibition of human recombinant COX1 assessed as reduction in PGF2alpha formation using arachidonic acid as substrate preincubated with enzyme for 10 mins followed by substrate addition for 30 secs and measured after 1 hr by microplate reader based enzyme immunoassay.
Chain of Prostaglandin G/H synthase 1 (P23219 whole entry): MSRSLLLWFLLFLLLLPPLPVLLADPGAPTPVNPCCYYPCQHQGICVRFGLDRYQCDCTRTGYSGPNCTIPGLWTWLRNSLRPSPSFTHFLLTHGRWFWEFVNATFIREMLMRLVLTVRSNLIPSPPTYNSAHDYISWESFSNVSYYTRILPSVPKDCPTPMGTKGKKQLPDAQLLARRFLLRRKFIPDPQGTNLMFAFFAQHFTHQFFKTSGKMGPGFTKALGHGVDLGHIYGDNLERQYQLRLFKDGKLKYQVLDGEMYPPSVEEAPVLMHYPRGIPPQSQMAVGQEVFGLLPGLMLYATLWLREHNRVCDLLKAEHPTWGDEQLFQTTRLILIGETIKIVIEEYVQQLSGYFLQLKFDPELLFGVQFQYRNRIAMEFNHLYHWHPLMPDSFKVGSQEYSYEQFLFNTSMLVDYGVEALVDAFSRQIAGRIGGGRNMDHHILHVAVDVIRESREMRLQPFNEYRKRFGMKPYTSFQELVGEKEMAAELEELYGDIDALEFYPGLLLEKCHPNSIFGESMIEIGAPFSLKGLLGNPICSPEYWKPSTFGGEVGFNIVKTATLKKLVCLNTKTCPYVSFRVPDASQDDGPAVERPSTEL
Data set [2] concerns the target T1, Prostaglandin G/H synthase 2 (Homo sapiens, UniProt P35354).
T1 sequence (P35354 whole entry): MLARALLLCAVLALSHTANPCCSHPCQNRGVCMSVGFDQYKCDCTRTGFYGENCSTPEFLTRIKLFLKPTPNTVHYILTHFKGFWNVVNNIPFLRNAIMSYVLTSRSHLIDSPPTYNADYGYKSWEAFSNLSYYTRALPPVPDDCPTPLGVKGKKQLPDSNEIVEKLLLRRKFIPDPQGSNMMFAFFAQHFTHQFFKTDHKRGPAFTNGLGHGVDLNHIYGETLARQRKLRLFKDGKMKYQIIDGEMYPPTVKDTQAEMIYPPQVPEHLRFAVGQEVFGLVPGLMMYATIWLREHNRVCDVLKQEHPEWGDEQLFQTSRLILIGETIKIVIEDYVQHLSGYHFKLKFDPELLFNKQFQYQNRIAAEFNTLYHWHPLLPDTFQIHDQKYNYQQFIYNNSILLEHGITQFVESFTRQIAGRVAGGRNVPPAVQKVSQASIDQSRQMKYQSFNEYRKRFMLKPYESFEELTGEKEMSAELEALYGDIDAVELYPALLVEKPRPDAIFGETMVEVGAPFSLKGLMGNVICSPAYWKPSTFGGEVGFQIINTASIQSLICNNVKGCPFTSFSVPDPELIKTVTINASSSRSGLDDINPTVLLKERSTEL
The experiment in a line: Inhibition of human recombinant COX-2 assessed as reduction in PGF2alpha formation using arachidonic acid as substrate preincubated with enzyme for 10 mins followed by substrate addition for 30 secs and measured after 1 hr by microplate reader based enzyme immunoassay.

For data set [3], the species on record is Homo sapiens. As to the kind of experiment: Selectivity index, ratio of IC50 for human recombinant COX1 to IC50 for human recombinant COX-2 assessed as reduction in PGF2alpha formation using arachidonic acid as substrate preincubated with enzyme for 10 mins followed by substrate addition for 30 secs and measured after 1 hr by microplate reader based enzyme immunoassay.

Data set [4] in a line: Toxicity in carrageenan-induced albino rat paw edema model assessed as Inhibition of cytosolic PGE2 synthase expression in plasma at 10 umol/kg, sc treated 1 hr prior to carrageenan challenge measured after 2 hrs by microplate reader based monoclonal sandwich ELISA assay. Particulars: in vivo. The data set is classed as organism-based.
Data set [5] has as its system Rattus norvegicus. As to the kind of experiment: Anti-inflammatory activity against carrageenan-induced albino rat paw edema model assessed as inhibition of carrageenan-induced right hind paw edema at 10 umol/kg, sc treated 1 hr prior to carrageenan challenge and measured immediately after carrageenan treatment by plethysmometer relative to control. The data set is classed as functional.

The test system of data set [6] is Rattus norvegicus. The experiment in a line: Anti-inflammatory activity against carrageenan-induced albino rat paw edema model assessed as inhibition of carrageenan-induced right hind paw edema at 10 umol/kg, sc treated 1 hr prior to carrageenan challenge and measured at 3 hrs after carrageenan treatment by plethysmometer relative to control. The data set is classed as functional.

Data set [7] has as its system Rattus norvegicus. As to the kind of experiment: Anti-inflammatory activity against carrageenan-induced albino rat paw edema model assessed as inhibition of carrageenan-induced right hind paw edema at 10 umol/kg, sc treated 1 hr prior to carrageenan challenge and measured at 2 hrs after carrageenan treatment by plethysmometer relative to control. The data set is classed as functional.

Data set [8] deals with Rattus norvegicus. As to the kind of experiment: Anti-inflammatory activity against carrageenan-induced albino rat paw edema model assessed as inhibition of carrageenan-induced right hind paw edema at 10 umol/kg, sc treated 1 hr prior to carrageenan challenge and measured at 1 hr after carrageenan treatment by plethysmometer relative to control. The data set is classed as functional.

Data set [9] deals with Rattus norvegicus. The experiment in a line: Anti-inflammatory activity against carrageenan-induced albino rat paw edema model assessed as inhibition of carrageenan-induced right hind paw edema at 10 umol/kg, sc treated 1 hr prior to carrageenan challenge and measured at 6 hrs after carrageenan treatment by plethysmometer relative to control. The data set is classed as functional.

Data set [10] has as its system Rattus norvegicus. As to the kind of experiment: Anti-inflammatory activity against carrageenan-induced albino rat paw edema model assessed as inhibition of microsomal PGE2 synthase expression in plasma at 10 umol/kg, sc treated 1 hr prior to carrageenan challenge measured after 2 hrs by microplate reader based monoclonal sandwich ELISA assay. It counts as functional.

Data set [11] concerns Rattus norvegicus. As to the kind of experiment: Anti-inflammatory activity against carrageenan-induced albino rat paw edema model assessed as inhibition of PGE2 production in plasma at 10 umol/kg, sc treated 1 hr prior to carrageenan challenge measured after 2 hrs by microplate reader based enzyme immunoassay relative to control. It counts as functional.
The test system of data set [12] is Rattus norvegicus. The experiment in a line: Ratio of inhibition of microsomal PGE2 synthase expression to inhibition of cytosolic PGE2 synthase expression in plasma of carrageenan-induced albino rat paw edema model at 10 umol/kg, sc treated 1 hr prior to carrageenan challenge measured after 2 hrs by microplate reader based monoclonal sandwich ELISA assay.

On to `N#Cc1cnn(-c2ccc(S(N)(=O)=O)cc2)c1/N=C/c1ccc(Cl)cc1`, for which the concentration for half-maximal inhibition (IC50) in data set [1] is 169 nM; in data set [2], 190 nM. For the same molecule, in data set [3], the Ratio IC50 was 0.89.

In the case of `N#Cc1cnn(-c2ccc(S(N)(=O)=O)cc2)c1NC(=O)CN1CCOCC1`, the figures for the IC50 in data set [1] and in [2] were 64.7 nM and 34.2 nM, respectively. Besides, the Ratio IC50 in data set [3] is 1.89.

As for `CC(Cl)C(=O)Nc1c(C#N)cnn1-c1ccc(S(N)(=O)=O)cc1` (configuration not stated), the half-maximal inhibitory concentration (IC50) in data set [1] was 507 nM; in [2], 108 nM. For the same molecule, in data set [3], the Ratio IC50 was 4.67.

On to `CC(=O)Nc1c(C#N)cnn1-c1ccc(S(=O)(=O)NC(C)=O)cc1`, for which, in [4], the “inhibition (INH)” value is on record as 31.08%. Besides, the inhibition in vivo at 10 µmol/kg was determined as 0% in data set [5]; 35% in data set [6]; 17.5% in [7]; 9.26% in [8]; 44.3% in data set [9]; 80% in data set [10]. The inhibition in vivo at 10 µmol/kg in data set [11] worked out at 65.3%. The IC50 in [1] was 879 nM; in data set [2], 61.2 nM. The Ratio IC50 in [3] worked out at 14.3.

Regarding `N#Cc1cnn(-c2ccc(S(N)(=O)=O)cc2)c1/N=C/c1ccc(Br)cc1`, the IC50 in [1] came out at 116 nM; in [2] it was 64.9 nM. Moreover, the Ratio IC50 in [3] came to 1.78.

For the molecule `Cc1ccc(-c2cc(C(F)(F)F)nn2-c2ccc(S(N)(=O)=O)cc2)cc1` [CELECOXIB], the “inhibition (INH)” value in data set [4] is 51.11%. Also, the inhibition in vivo at 10 µmol/kg in data set [5] is 6.06%; in data set [6], 35%; in data set [7], 8.99%; in [8], 11.1%; in data set [9], 42.6%; in data set [10] it was 80%. Also, the inhibition in vivo at 10 µmol/kg in data set [11] turned out to be 69.6%.

On to `CC(C(=O)Nc1c(C#N)cnn1-c1ccc(S(N)(=O)=O)cc1)N1CCOCC1` (configuration not stated), for which the half-inhibitory concentration (IC50) in [1] came to 161 nM; in [2], 123 nM. Moreover, the Ratio IC50 in data set [3] stood at 1.31.

Regarding `N#Cc1cnn(-c2ccc(S(N)(=O)=O)cc2)c1NC(=O)c1ccccc1`, the IC50 amounted to 73.3 nM in [1] and 56.2 nM in [2]. Further, the Ratio IC50 in data set [3] is 1.3.

In the case of `N#Cc1cnn(-c2ccc(S(N)(=O)=O)cc2)c1/N=C/c1ccccc1`, the IC50 in data set [1] is 205 nM; in data set [2], 83 nM. Also, in data set [3], the Ratio IC50 came to 2.46.

As for `N#Cc1cnn(-c2ccc(S(N)(=O)=O)cc2)c1NC(=O)CCCl`, the IC50 in [1] was 123 nM; in data set [2] it was 58 nM. In data set [3], the Ratio IC50 is 2.12.

Turning to `N#Cc1cnn(-c2ccc(S(N)(=O)=O)cc2)c1/N=C/c1ccc(F)cc1`, the “inhibition (INH)” value in [4] is 48.52%. The inhibition entry in data set [5] was “inactive”. For the same molecule, the inhibition in vivo at 10 µmol/kg was determined as 36.7% in data set [6]; 7.94% in data set [7]; 1.85% in data set [8]; 43% in [9]; 74.7% in data set [10]; 73.9% in [11]. Further, the figures for the IC50 in data set [1] and in [2] were 677 nM and 38.7 nM, respectively. The Ratio IC50 in [3] was found to be 17.5.

Take `N#Cc1cnn(-c2ccc(S(N)(=O)=O)cc2)c1NC(=O)CCN1CCOCC1`: the “inhibition (INH)” value in [4] came to 44.43%. Moreover, the inhibition entry in data set [5] is “inactive”. Further, the inhibition in vivo at 10 µmol/kg in data set [6] came out at 39.5%; in [7] it was 27.5%; in data set [8] it was 2.04%; in data set [9], 44%; in [10], 74.1%; in data set [11], 76.2%. Moreover, the “fold change (FC)” value in data set [12] was 1.5. Moreover, the figures for the concentration for half-maximal inhibition (IC50) in data set [1] and in data set [2] were 876 nM and 39.4 nM, respectively. Moreover, the Ratio IC50 in data set [3] came out at 22.2.

As to `N#Cc1cnn(-c2ccc(S(N)(=O)=O)cc2)c1NC(=O)CCl`, in [4], the “inhibition (INH)” value is on record as 31.55%. Besides, the inhibition in vivo at 10 µmol/kg in [5] was determined as 13.6%; in data set [6] it was 40.1%; in [7], 26.5%; in [8] it was 16.7%; in data set [9], 46%; in data set [10], 80.7%. In addition, the inhibition in vivo at 10 µmol/kg in data set [11] came out at 67.5%. In data set [12], the “fold change (FC)” value turned out to be 2.5. Besides, the results for the IC50 in [1] and in data set [2] were 104 nM and 19.9 nM, respectively. Moreover, in data set [3], the Ratio IC50 amounted to 5.24.

For the molecule `COc1ccc(/C=N/c2c(C#N)cnn2-c2ccc(S(N)(=O)=O)cc2)cc1OC`, the IC50 amounted to 163 nM in data set [1] and 43.7 nM in data set [2]. Moreover, in data set [3], the Ratio IC50 was found to be 3.72.

For the molecule `COc1ccc(/C=N/c2c(C#N)cnn2-c2ccc(S(N)(=O)=O)cc2)cc1`, the “inhibition (INH)” value in [4] stood at 52.43%. For the same molecule, the inhibition entry in data set [5] and in data set [8] was “inactive” each time. Further, the inhibition in vivo at 10 µmol/kg is 33.6% in [6]; 5.29% in data set [7]; 42.3% in data set [9]; 80.3% in [10]; 64.4% in [11]. For the same molecule, the figures for the IC50 in data set [1] and in data set [2] were 513 nM and 39.1 nM, respectively. Further, the Ratio IC50 in [3] turned out to be 13.1.
